The results in this text go back to ChEMBL document CHEMBL1201862, “PubChem BioAssay data set” (2004).

One assay has as its system P388/ADR. Put plainly: cells. In kind it is functional. Conditions: Mus musculus.
For another assay, the system named is SN12K1. Description: cells. It counts as functional. To be noted: Homo sapiens.
In the next assay the test system is P388. Description: cells. Conditions: Mus musculus. It counts as functional.
The nature of assay [1]: P. falciparum Dd2 growth inhibitors, dose response, SYBR Green, cherry-picked samples (AID 1159567). It counts as functional, cell-based.
Assay [2] is described as follows: HepG2 cell cytotoxicity, dose response, cytotoxicity control, cherry-picked samples (AID 1159577). In kind it is functional, cell-based.
For assay [3], the system named is BJ. Put plainly: cytotoxicity toward BJ-TERT fibroblasts, dose response, cell-based, RAS-independent, luminescence (AID 1933). It counts as functional. To be noted: Homo sapiens.
Assay [4] is described as follows: cytotoxicity in HEK-293T cells, dose response, cytotoxicity control for TCR NF-kB inhibitor project, luminescence, T-cell screen hits (AID 489026).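 Note: cells exposed to compound about 14 hours before the viability readout.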 It counts as functional, cell-based.
Assay [5] deals with BJ. Put plainly: cells. It counts as functional, cell-based. To be noted: Homo sapiens.
In assay [6] the test system is BJ. Put plainly: cytotoxicity toward BJ-TERT-LT-ST fibroblasts, dose response, cell-based, RAS-independent, luminescence (AID 1935).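 Note: BJ fibroblasts immortalized with TERT plus LT and ST oncogenes.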 It counts as functional. To be noted: Homo sapiens.
Assay [7] in a line: cytotoxicity toward DRD oncogenic fibroblasts, dose response, cell-based, non-viral oncogenic, luminescence (AID 1934). It counts as functional. To be noted: Homo sapiens.
A further assay has as its target Cytochrome P450 3A4 (Homo sapiens, UniProt P08684). To be noted: Potency.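 Note: confirmatory qHTS run detecting inhibitors and substrates of CYP3A4.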
For assay [8], the target named is T1, High affinity choline transporter 1 (Homo sapiens, UniProt Q9GZV3).
T1 sequence (Q9GZV3 whole entry): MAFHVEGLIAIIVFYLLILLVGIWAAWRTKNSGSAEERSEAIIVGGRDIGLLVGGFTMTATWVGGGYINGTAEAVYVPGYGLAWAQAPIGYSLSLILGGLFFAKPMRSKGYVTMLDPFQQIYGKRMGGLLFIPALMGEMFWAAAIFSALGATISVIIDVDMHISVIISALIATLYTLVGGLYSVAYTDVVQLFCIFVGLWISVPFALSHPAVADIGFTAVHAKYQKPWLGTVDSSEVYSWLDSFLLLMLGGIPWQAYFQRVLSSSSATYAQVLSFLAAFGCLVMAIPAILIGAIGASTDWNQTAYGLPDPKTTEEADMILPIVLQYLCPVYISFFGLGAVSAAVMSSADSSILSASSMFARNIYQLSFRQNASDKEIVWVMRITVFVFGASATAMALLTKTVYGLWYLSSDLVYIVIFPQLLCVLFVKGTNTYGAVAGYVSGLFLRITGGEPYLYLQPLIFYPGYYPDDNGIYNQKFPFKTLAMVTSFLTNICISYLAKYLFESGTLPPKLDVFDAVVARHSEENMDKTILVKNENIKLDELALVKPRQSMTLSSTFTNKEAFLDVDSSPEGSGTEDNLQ
Put plainly: CHT inhibitors, dose response, cell-based, 5-point CRC, membrane potential dye (AID 504840). In kind it is functional.

Assay [9] can be described thus: control 3'UTR Renilla luciferase suppression, dose response, counter-screen for Shn3 inhibitor project, cell-based, Clone20-Shn3RL, cherry-picked (AID 624133). In kind it is functional.
Assay [10] addresses T2, Heat shock factor protein 1 (Mus musculus, UniProt P38532).
T2 sequence (P38532 whole entry): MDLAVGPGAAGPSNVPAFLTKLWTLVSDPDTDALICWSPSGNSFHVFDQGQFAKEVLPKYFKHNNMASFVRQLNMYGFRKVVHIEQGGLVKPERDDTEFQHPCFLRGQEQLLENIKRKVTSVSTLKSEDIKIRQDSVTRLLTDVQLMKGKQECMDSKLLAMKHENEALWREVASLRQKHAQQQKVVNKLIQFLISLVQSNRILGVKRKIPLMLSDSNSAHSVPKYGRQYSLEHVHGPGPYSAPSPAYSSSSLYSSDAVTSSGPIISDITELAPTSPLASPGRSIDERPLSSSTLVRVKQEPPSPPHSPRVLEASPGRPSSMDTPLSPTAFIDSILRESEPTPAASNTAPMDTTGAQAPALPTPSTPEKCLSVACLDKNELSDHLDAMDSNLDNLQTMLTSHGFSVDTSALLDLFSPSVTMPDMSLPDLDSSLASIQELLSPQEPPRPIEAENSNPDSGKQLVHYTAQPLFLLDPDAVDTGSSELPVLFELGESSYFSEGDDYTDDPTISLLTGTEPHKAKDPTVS
Put plainly: HSF1 potentiators in luciferase reporter cells, confirmation, cell-based, NIH3T3, luminescence, dose retest (AID 435004).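 Note: stress induced by proteasome inhibitor MG132 added 30 min after compound; luciferase reporter driven by HSF1 response element in NIH3T3 cells; actives raise luminescence as potentiators of the MG132 stress response.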 In kind it is functional. On the technique in general: Reporter assays use an easily measured gene product as a stand-in for the process of interest.

A short description of assay [11]: C. albicans growth with fluconazole, confirmation, fluorescence, retest (AID 2467). In kind it is functional, cell-based.
Assay [12] can be described thus: NIH-3T3 fibroblast cytotoxicity, dose response, cytotoxicity control, cell-based, fluorescence, Alamar Blue, secondary assay (AID 2327).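 Note: NIH-3T3 mouse fibroblasts cultured with fluconazole at 8 µg/mL.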 It counts as functional.
Assay [13] concerns the target T3, Microphthalmia-associated transcription factor (Homo sapiens, UniProt O75030).
T3 sequence (O75030 whole entry): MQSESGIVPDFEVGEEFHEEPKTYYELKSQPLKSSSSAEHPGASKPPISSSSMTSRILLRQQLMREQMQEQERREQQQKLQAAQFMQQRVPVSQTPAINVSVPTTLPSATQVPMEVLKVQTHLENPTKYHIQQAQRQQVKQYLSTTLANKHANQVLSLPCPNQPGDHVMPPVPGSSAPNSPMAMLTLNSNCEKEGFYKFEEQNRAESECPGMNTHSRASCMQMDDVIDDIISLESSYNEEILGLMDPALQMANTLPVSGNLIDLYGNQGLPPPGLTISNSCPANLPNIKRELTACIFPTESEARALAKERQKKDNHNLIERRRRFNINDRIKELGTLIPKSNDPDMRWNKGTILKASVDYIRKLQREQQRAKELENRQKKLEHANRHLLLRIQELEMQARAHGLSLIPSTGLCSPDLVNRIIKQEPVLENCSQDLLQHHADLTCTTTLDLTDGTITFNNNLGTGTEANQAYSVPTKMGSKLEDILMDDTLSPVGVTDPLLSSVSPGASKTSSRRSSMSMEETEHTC
Description: TRPM1 promoter luciferase signal decrease, dose response, MITF inhibitor project, cell-based, SK-MEL-5, cherry-picked, set 3 (AID 493073).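 Note: SK-MEL-5 melanoma cells with luciferase driven by the MITF target TRPM1 promoter.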 It counts as functional.

In assay [14] the target is T4, Polyadenylate-binding protein 1 (Homo sapiens, UniProt P11940). Description: PABP1 MLLE–PAM2 interaction inhibitors, dose response, miRNA deadenylation inhibitor project, biochemical, fluorescence polarization, Cy5-PAM2 peptide, secondary (AID 602260). It counts as functional. To be noted: read-out: IC50_Mean. A general note: Polarisation of emitted light reports the rotation of a fluorescent probe.

Assay [15] addresses T4, Polyadenylate-binding protein 1. Description: PABP1 MLLE–PAM2 binding inhibitor potency, dose response, biochemical, fluorescence polarization, FITC-PAM2 peptide (AID 602259). It counts as functional. Conditions: read-out: IC50_Mean.
The nature of assay [16]: Shn3 3'UTR reporter inhibitors, dose response, cell-based, Clone20 osteoblasts, firefly luciferase, cherry-picked (AID 624132).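 Note: firefly luciferase luminescence from reporter carrying the Shn3 3'UTR in osteoblasts.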 In kind it is functional.
The nature of assay [17]: HepG2 cell cytotoxicity, dose response, cytotoxicity control for Shn3 inhibitor project, CellTiter-Glo, cherry-picked (AID 624134). In kind it is functional, cell-based. On the technique in general: Cellular ATP, detected with luciferase, serves as a proxy for viable cell number.
In a further assay the target is Nonstructural protein 1 (Influenza A virus, UniProt Q194T2). It counts as functional, Influenza A virus (A/California/07/2009(H1N1)).

Structures are written as SMILES. Active and inactive are the calls of the source.

Cytochrome P450 3A4, sequence (P08684 whole entry): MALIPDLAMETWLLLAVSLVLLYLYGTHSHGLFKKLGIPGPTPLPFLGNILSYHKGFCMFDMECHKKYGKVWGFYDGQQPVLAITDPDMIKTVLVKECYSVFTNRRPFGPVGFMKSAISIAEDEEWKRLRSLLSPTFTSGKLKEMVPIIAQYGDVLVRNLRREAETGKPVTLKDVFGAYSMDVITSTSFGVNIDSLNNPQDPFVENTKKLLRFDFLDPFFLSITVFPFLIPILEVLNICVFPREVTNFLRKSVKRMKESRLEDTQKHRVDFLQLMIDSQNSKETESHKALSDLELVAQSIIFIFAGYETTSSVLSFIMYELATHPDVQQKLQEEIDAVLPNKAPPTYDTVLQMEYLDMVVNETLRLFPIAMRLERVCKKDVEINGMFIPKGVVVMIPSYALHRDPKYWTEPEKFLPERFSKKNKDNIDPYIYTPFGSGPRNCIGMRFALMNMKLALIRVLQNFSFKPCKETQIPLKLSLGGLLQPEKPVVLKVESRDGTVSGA
T4 sequence (P11940 whole entry): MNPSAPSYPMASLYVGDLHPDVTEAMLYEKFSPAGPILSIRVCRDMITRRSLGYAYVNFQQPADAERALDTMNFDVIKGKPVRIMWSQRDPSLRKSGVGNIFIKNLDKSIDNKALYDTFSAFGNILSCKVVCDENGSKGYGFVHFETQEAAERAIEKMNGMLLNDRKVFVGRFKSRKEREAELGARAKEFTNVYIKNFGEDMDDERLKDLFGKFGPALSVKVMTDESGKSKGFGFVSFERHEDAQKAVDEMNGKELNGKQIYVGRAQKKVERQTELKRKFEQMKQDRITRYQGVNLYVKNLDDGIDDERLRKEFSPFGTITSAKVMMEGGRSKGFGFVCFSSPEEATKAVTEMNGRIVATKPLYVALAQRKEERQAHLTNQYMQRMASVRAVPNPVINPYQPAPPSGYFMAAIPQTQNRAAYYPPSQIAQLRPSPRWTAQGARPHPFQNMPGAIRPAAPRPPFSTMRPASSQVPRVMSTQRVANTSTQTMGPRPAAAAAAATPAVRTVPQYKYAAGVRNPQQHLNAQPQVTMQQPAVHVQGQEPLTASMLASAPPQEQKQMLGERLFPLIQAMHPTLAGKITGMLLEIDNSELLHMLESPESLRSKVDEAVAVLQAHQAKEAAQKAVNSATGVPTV
Nonstructural protein 1, sequence (Q194T2 whole entry): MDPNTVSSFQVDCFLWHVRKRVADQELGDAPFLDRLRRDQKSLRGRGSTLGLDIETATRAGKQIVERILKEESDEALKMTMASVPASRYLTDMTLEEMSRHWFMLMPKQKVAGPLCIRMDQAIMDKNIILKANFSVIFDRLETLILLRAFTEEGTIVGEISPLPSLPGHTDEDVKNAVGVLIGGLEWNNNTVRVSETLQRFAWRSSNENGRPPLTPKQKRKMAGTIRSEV

For orientation: GI50 means the concentration that inhibits growth by half. With `CCCCCCCCCCCCCCCCCCOCC(COCCOCC[N+]1(CCCCCC(=O)[O-])CCCC1)Oc1ncccn1` (configuration not stated), the GI50 was 11.2 µM (inactive) with P388/ADR, 4.12 µM (inactive) with SN12K1 and 0.288 µM (active) with P388.

The term AC50 denotes the midpoint of the concentration-response curve, whichever way the signal moves. Regarding `CC(C)CC#Cc1ccc2c(c1)O[C@@H](CN(C)Cc1cccc(F)c1)[C@H](C)CN([C@H](C)CO)S2(=O)=O`, the AC50 in assay [1] is 4.19 µM (active); in [2], 17.1 µM (active).

The term EC50 denotes the midpoint of the concentration-response curve. On to `COc1ccccc1NC(=O)Cn1nnc(C(=O)NCc2cccs2)c1N`, for which the EC50 is 1.96 µM (active) in the assay with BJ [3], 19.3 µM (active) with BJ [5], 1.41 µM (active) in the assay on BJ [6] and 1.18 µM (active) in assay [7]. Moreover, the IC50 in assay [4] is > 80 µM (inactive).

For `NC1CCCCC1.O=P(O)(O)C(CSc1ccccc1)P(=O)(O)O`, the GI50 in the assay with P388/ADR, with SN12K1 and in the assay on P388 was > 100 µM (inactive) each time.

As for `C=CCOC(=O)C(C(C)=O)C(NC(=O)OC)c1ccc2ccccc2c1` (configuration not stated), the AC50 on Cytochrome P450 3A4 is 1 µM (inconclusive).

As to `Cn1c(N)c(C(=O)COC(=O)c2ccnc3ccccc23)c(=O)n(C)c1=O`, the AC50 at Cytochrome P450 3A4 was 15.8 µM (inconclusive).

As to `C=CCSSSCC=C` [ALLITRIDIN], the AC50 at Cytochrome P450 3A4 is 39.8 µM (inconclusive).

For `CN(C)C(=O)c1ccc(-c2ccc3c(c2)[C@@H]2[C@@H](CCN2C(=O)C2CCCC2)[C@H](CO)N3C)cc1`, the results for the AC50 in [1] and in [2] were 6.47 µM (active) and > 39 µM (inactive), respectively.

For `Nc1cccc(N)c1`, the AC50 at Cytochrome P450 3A4 is 31.6 µM (inconclusive).

Take `Cc1cc(Cl)ccc1OCCCC(=O)N1CCN(C(=O)c2ccco2)CC1`: in assay [8], the IC50 is 2 µM (active).

Turning to `Cc1cc(Sc2ncnc(N)c2[N+](=O)[O-])ncn1`, the AC50 in assay [9] is 7.76 µM (active); in assay [13], 7.61 µM (active); in [16] it was 5.7 µM (active); in assay [17], 30.1 µM (active). Also, the EC50 was 12.2 µM (active) in [10], 0.58 µM (active) in assay [11] and 2.67 µM (inconclusive) in assay [12]. The IC50 in assay [14] and in [15] was > 66 µM (inactive) in each case.

With `O=C(C[n+]1ccccc1)NN=Cc1cc(Br)cc(Br)c1O`, the IC50 at Nonstructural protein 1 was 3.68 µM (active).

Turning to `CC(C)c1ccc(/C=C(\NC(=O)c2ccccc2)C(=O)NCCCn2ccnc2)cc1`, the IC50 in [8] is 15.8 µM (active).

In the case of `CC(C)c1c(O)ccc2c1CCC1[C@@](C)(CO)CCC[C@@]21C` (some centres not stated), the AC50 on Cytochrome P450 3A4 is 39.8 µM (inconclusive).

With `COc1ccc(Nc2ccc([N+](=O)[O-])c3nonc23)c(OC)c1`, the IC50 on Nonstructural protein 1 is > 100 µM (active).

`Cc1ccc(NC(=O)CNC(=O)c2cccc(Cl)c2)nc1`: the IC50 in [8] is 13.1 µM (active).

Turning to `Cc1c2ccncc2cc2c1[nH]c1ccccc12`, the GI50 in the assay with P388/ADR was 2.93 µM (inactive); in the assay on SN12K1, 3.72 µM (inactive); in the assay with P388 it was 1.61 µM (inactive).
